Marks after values point to notes of the source that are not given here.
Key:
[1] = tested on: mRNA of collagen I of osteocyte; experiment: Hybridization in situ of mRNA of collagen I, osteocytes, femur of rats with retinoic acid osteoporosis; format: in vivo, rat; settings: for Positive Case Nos. of osteocyte (mRNA of collagen I) / Positive percentage of mRNA of collagen I, osteocyte: 100 mg/kg body weight, 10 weeks
Method: (§1) The rats were administered drugs for 10 weeks, respectively.
(§2) Collagen I was stained by hybridization in situ, following the directions of the kit. After specific hybridization, mRNA of collagen I was developed by 3,3′-diaminobenzidine (DAB). The slide was routinely dehydrated and mounted.
(§3) X2 test was conducted to the experimental data.

[2] = tested on: mRNA of collagen I of chondrocyte; experiment: Hybridization in situ of mRNA of collagen I, chondrocytes, femur of rats with retinoic acid osteoporosis; format: in vivo, rat
Method: as §1, §2, §3

[3] = tested on: bone tissue of the rat with osteoporosis caused by retinoic acid; experiment: Histochemical staining (M-S, T-B, HE, V-K silver) of bone and cartilage; settings: for Articular cartilage / cartilage matrix: blank-control group as normal reference; for Formation of new bone: compared with blank-control group; for Bone trabeculae in cancellous bone (figure legends): FIGS. 7, 13, 14
Method: (§4) Grouping of animals: 66 male 3-month-aged rats were used in the present test. Eight rats were randomly selected as blank-control group, which were fed with normal diet and tap water. The other 58 rats were randomly divided into 9 groups, and were continuously administered retinoic acid with a dosage of 70 mg/kg body weight and volume of 10 ml/kg body weight, and were fed with low calcium diet meanwhile. After two weeks of administration of retinoic acid, stop the drug and thus establishing osteoporosis models.
(4) Calcium citrate group: 6 rats, administered calcium citrate with a dosage of 100 mg/kg body weight
(5) Sodium hydroxyethyl phosphate group: 6 rats, administered sodium hydroxyethyl phosphate with a dosage of 100 mg/kg body weight
(§5) The rats were administered drugs for 10 weeks, respectively. During the whole test period, each group was fed with low calcium diet and de-ionized water except that the blank-control group was fed with normal diet. Then the lower one third of right femur of each rat was extracted, and preserved at −20° C.
(2) Histochemical Staining
a Masson-Goldner Lrichrone staining (M-S staining)
b Toluidine Blue staining (T-B staining)
c Hematoxylin-eosin (HE) staining
d Von Kossa silver staining of partial slice (V-K silver staining).

[4] = tested on: collagen I of chondrocyte; experiment: Immunohistochemical staining of collagen I (ABC method), chondrocytes, rats with retinoic acid osteoporosis; settings: for Positive Case Nos. of chondrocyte (collagen I immunohistochemical staining) / Positive percentage of collagen I by immunohistochemical staining, chondrocyte: 100 mg/kg body weight, 10 weeks
Method: as §4, §5
Collagen I was immunohistochemically stained by ABC method, following the directions of kit. Collagen I was developed by DAB. The slide was routinely dehydrated and mounted. (The detection kit was provided by Wuhan Doctor Microbiologic Engineering Co. Ltd., China. Cat. No: BA0325)
The results were observed by microscopy, which was expressed by positive percentage. X2 test was conducted to the experimental data.

[5] = 100 mg/kg body weight, 10 weeks

Row | Compound | Positive percentage of mRNA of collagen I compared with Model-control group ([1]; rat, in vivo) | Expression percentage of mRNA of collagen I compared with model-control group ([2]; rat, in vivo) | Nourishing blood vessels of the bone ([3]; 10 weeks) | Articular cartilage / cartilage matrix ([3]; 10 weeks) | Formation of new bone ([3]; 10 weeks) | Bone trabeculae in cancellous bone (figure legends) [3] | Osteocollagenous fibers by silver staining (figure legends) ([3]; silver staining, FIGS. 9, 10, 11, 20) | Positive percentages of collagen I by immunohistochemistry, comparison of groups ([4]; rat, in vivo) | Positive Case Nos. of osteocyte (mRNA of collagen I) [1] | Positive percentage of mRNA of collagen I, osteocyte [1] [%] | Positive Case Nos. of chondrocyte (mRNA of collagen I) [2, 5] | Positive percentage of mRNA of collagen I, chondrocyte [2, 5] | Positive Case Nos. of chondrocyte (collagen I immunohistochemical staining) [4] | Positive percentage of collagen I by immunohistochemical staining, chondrocyte [4] | Staining of glycogen in cancellous bone (figure legends) ([3]; histochemical staining of glycogen, FIGS. 8, 13, 14)
1 | calcium L-threonate | significantly higher than Model-control group | significantly higher than that of model-control group | increased | Cartilage collagen fibers and matrix thickened | increased | thick, dense and ordered | parallel, regular and abundant | relatively higher |  |  |  |  |  |  | 
2 | O=C([O-])CC(O)(CC(=O)[O-])C(=O)[O-].O=C([O-])CC(O)(CC(=O)[O-])C(=O)[O-].[Ca+2].[Ca+2].[Ca+2] [Calcium citrate, calcium citrate] |  |  |  |  | less than those of the blank-control group |  |  |  | 2 | 33.3 | 0 (0%) | 0 (0%) | 0 (0%)** | 0 (0%)** | 
3 | O=P([O-])([O-])OCCO.[Na+].[Na+] [Sodium hydroxyethyl phosphate, sodium hydroxyethyl phosphate] |  |  |  | developed retrograde affection |  | excessive and disorganized |  |  | 2 | 33.3 |  |  | 2 | 33.3% | less glycogen
